Test results published in ChEMBL document CHEMBL1201861, “Genomics of Drug Sensitity in Cancer screening data, Wellcome Trust Sanger Institute”.

Experiments:
Test in all cases: cells
Conditions in all cases: Homo sapiens
OE19 = assay type: functional, cell-based;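 also: growth inhibition of OE19 cells, measured through a cell viability read-out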
Description: SANGER: Inhibition of human OE19 cell growth in a cell viability assay.

G-402 = assay type: functional, cell-based
Description: SANGER: Inhibition of human G-402 cell growth in a cell viability assay.

PC-14 = assay type: functional, cell-based;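 also: cell viability assay measuring inhibition of PC-14 cell growth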
Description: SANGER: Inhibition of human PC-14 cell growth in a cell viability assay.

BEN = assay type: functional, cell-based;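 also: growth inhibition of the BEN cell line, read out with a cell viability assay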
Description: SANGER: Inhibition of human BEN cell growth in a cell viability assay.

NCI-H358 = assay type: functional, cell-based;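 also: growth inhibition of NCI-H358 human cells, read out with a cell viability assay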
Description: SANGER: Inhibition of human NCI-H358 cell growth in a cell viability assay.

RO82-W-1 = assay type: functional, cell-based;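 also: growth inhibition of human RO82-W-1 cells, measured with a cell viability assay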
Description: SANGER: Inhibition of human RO82-W-1 cell growth in a cell viability assay.

LN-405 = assay type: functional, cell-based
Description: SANGER: Inhibition of human LN-405 cell growth in a cell viability assay.

PA-1 = assay type: functional, cell-based;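 also: IC50 for suppression of PA-1 cell proliferation, determined with a cell viability read-out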
Description: SANGER: Inhibition of human PA-1 cell growth in a cell viability assay.

HLE = assay type: functional, cell-based;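 also: growth inhibition of human HLE cells, read out by a cell viability assay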
Description: SANGER: Inhibition of human HLE cell growth in a cell viability assay.

U2OS = assay type: functional, cell-based, U-2-OS;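 also: growth inhibition of human U-2-OS cells, determined with a cell viability assay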
Description: SANGER: Inhibition of human U-2-OS cell growth in a cell viability assay.

UMUC3 = assay type: functional, cell-based;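 also: growth inhibition of human UM-UC-3 cells, read out with a cell viability assay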
Description: SANGER: Inhibition of human UM-UC-3 cell growth in a cell viability assay.

TCC-SUP = assay type: functional, cell-based;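 also: growth inhibition of TCC-SUP cells, read out with a cell viability assay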
Description: SANGER: Inhibition of human TCCSUP cell growth in a cell viability assay.

HuP-T4 = assay type: functional, cell-based;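 also: cell viability assay measuring how much HuP-T4 cell growth is inhibited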
Description: SANGER: Inhibition of human HuP-T4 cell growth in a cell viability assay.

SW1463 = assay type: functional, cell-based;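 also: growth inhibition of SW1463 cells, determined with a cell viability assay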
Description: SANGER: Inhibition of human SW1463 cell growth in a cell viability assay.

KYSE-70 cell line = assay type: functional, cell-based;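 also: cell viability assay read-out, with IC50 expressing suppression of KYSE-70 cell growth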
Description: SANGER: Inhibition of human KYSE-70 cell growth in a cell viability assay.

BXPC-3 = assay type: functional, cell-based;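 also: growth inhibition of human BxPC-3 cells, read out by a cell viability assay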
Description: SANGER: Inhibition of human BxPC-3 cell growth in a cell viability assay.

NCI-H1651 = assay type: functional, cell-based;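 also: Read-out is a cell viability assay, with IC50 expressing inhibition of NCI-H1651 cell growth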
Description: SANGER: Inhibition of human NCI-H1651 cell growth in a cell viability assay.

KYSE-140 = assay type: functional, cell-based;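 also: cell viability assay measuring growth inhibition in human KYSE-140 cells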
Description: SANGER: Inhibition of human KYSE-140 cell growth in a cell viability assay.

NCI-H1437 = assay type: functional, cell-based;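 also: growth inhibition of human NCI-H1437 cells, read out by a cell viability assay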
Description: SANGER: Inhibition of human NCI-H1437 cell growth in a cell viability assay.

MOLT-13 = assay type: functional, cell-based;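 also: IC50 for suppression of MOLT-13 cell growth, read out with a cell viability assay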
Description: SANGER: Inhibition of human MOLT-13 cell growth in a cell viability assay.

KYSE-270 = assay type: functional, cell-based;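 also: cell growth inhibition measured with a viability assay in the human KYSE-270 line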
Description: SANGER: Inhibition of human KYSE-270 cell growth in a cell viability assay.

SW948 = assay type: functional, cell-based;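 also: growth inhibition of SW948 cells, read out with a cell viability assay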
Description: SANGER: Inhibition of human SW948 cell growth in a cell viability assay.

M059J = assay type: functional, cell-based;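 also: growth inhibition of M059J cells, read out with a cell viability assay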
Description: SANGER: Inhibition of human M059J cell growth in a cell viability assay.

NCI-H1693 = assay type: functional, cell-based;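 also: growth inhibition of the human cell line, read out with a cell viability assay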
Description: SANGER: Inhibition of human NCI-H1693 cell growth in a cell viability assay.

CAL-39 = assay type: functional, cell-based;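 also: cell viability assay measuring growth inhibition of CAL-39 cells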
Description: SANGER: Inhibition of human CAL-39 cell growth in a cell viability assay.

HuO-3N1 = assay type: functional, cell-based;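 also: cell viability readout used to measure how strongly compounds suppress proliferation of human HuO-3N1 cells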
Description: SANGER: Inhibition of human HuO-3N1 cell growth in a cell viability assay.

NCI-H2347 = assay type: functional, cell-based;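 also: growth inhibition of the cell line, read out with a cell viability assay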
Description: SANGER: Inhibition of human NCI-H2347 cell growth in a cell viability assay.

J82 = assay type: functional, cell-based;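 also: growth inhibition of J82 cells, read out with a cell viability assay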
Description: SANGER: Inhibition of human J82 cell growth in a cell viability assay.

LCLC-97TM1 = assay type: functional, cell-based;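 also: cell viability assay measuring growth inhibition of human LCLC-97TM1 cells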
Description: SANGER: Inhibition of human LCLC-97TM1 cell growth in a cell viability assay.

MeWo = assay type: functional, cell-based;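 also: growth inhibition of MeWo cells, determined by a cell viability readout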
Description: SANGER: Inhibition of human Mewo cell growth in a cell viability assay.

ABC-1 = assay type: functional, cell-based;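 also: growth inhibition of human ABC-1 cells, read out by a cell viability assay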
Description: SANGER: Inhibition of human ABC-1 cell growth in a cell viability assay.

COR-L23 = assay type: functional, cell-based;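 also: cell viability assay measuring how strongly compounds suppress growth of COR-L23 cells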
Description: SANGER: Inhibition of human COR-L23 cell growth in a cell viability assay.

HCT-116 = assay type: functional, cell-based
Description: SANGER: Inhibition of human HCT-116 cell growth in a cell viability assay.

Hs-578T = assay type: functional, cell-based
Description: SANGER: Inhibition of human Hs-578-T cell growth in a cell viability assay.

SK-MEL-28 = assay type: functional, cell-based;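 also: growth inhibition of human SK-MEL-28 cells, read out with a cell viability assay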
Description: SANGER: Inhibition of human SK-MEL-28 cell growth in a cell viability assay.

IGR-1 = assay type: functional, cell-based;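 also: growth inhibition of human IGR-1 cells, read out with a cell viability assay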
Description: SANGER: Inhibition of human IGR-1 cell growth in a cell viability assay.

SK-N-AS = assay type: functional, cell-based;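 also: growth inhibition of human SK-N-AS cells, measured with a cell viability assay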
Description: SANGER: Inhibition of human SK-N-AS cell growth in a cell viability assay.

NCI-H2452 = assay type: functional, cell-based;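 also: growth inhibition of NCI-H2452 cells, read out with a cell viability assay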
Description: SANGER: Inhibition of human NCI-H2452 cell growth in a cell viability assay.

T84 = assay type: functional, cell-based;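 also: growth inhibition measured with a cell viability readout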
Description: SANGER: Inhibition of human T84 cell growth in a cell viability assay.

DMS-273 = assay type: functional, cell-based
Description: SANGER: Inhibition of human DMS-273 cell growth in a cell viability assay.

SK-MEL-24 = assay type: functional, cell-based;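 also: growth inhibition read out by a cell viability assay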
Description: SANGER: Inhibition of human SK-MEL-24 cell growth in a cell viability assay.

EW-22 = assay type: functional, cell-based;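 also: growth inhibition of the EW-22 cell line, measured with a cell viability readout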
Description: SANGER: Inhibition of human EW-22 cell growth in a cell viability assay.

DOK = assay type: functional, cell-based;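 also: cell viability assay read-out, values reflect inhibition of cell growth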
Description: SANGER: Inhibition of human DOK cell growth in a cell viability assay.

EGI-1 = assay type: functional, cell-based;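 also: cell viability readout used to gauge growth inhibition of EGI-1 cells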
Description: SANGER: Inhibition of human EGI-1 cell growth in a cell viability assay.

CaR-1 = assay type: functional, cell-based;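 also: growth inhibition of human CaR-1 cancer cells, read out with a cell viability assay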
Description: SANGER: Inhibition of human CaR-1 cell growth in a cell viability assay.

D-247MG = assay type: functional, cell-based
Description: SANGER: Inhibition of human D-247MG cell growth in a cell viability assay.

CAKI-1 = assay type: functional, cell-based;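 also: growth inhibition of CAKI-1 cells, measured by a cell viability assay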
Description: SANGER: Inhibition of human CAKI-1 cell growth in a cell viability assay.

NCI-H460 = assay type: functional, cell-based;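 also: cell viability assay scoring growth inhibition of human NCI-H460 cells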
Description: SANGER: Inhibition of human NCI-H460 cell growth in a cell viability assay.

SW1088 = assay type: functional, cell-based;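 also: growth inhibition of human SW1088 cells, read out by a cell viability assay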
Description: SANGER: Inhibition of human SW1088 cell growth in a cell viability assay.

MHH-ES-1 = assay type: functional, cell-based;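 also: cell growth inhibition measured by a cell viability assay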
Description: SANGER: Inhibition of human MHH-ES-1 cell growth in a cell viability assay.

SW1710 = assay type: functional, cell-based;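 also: growth inhibition of SW1710 cells, determined with a cell viability assay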
Description: SANGER: Inhibition of human SW1710 cell growth in a cell viability assay.

NCI-H1623 = assay type: functional, cell-based;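 also: cell viability assay used as the read-out for growth inhibition of NCI-H1623 cells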
Description: SANGER: Inhibition of human NCI-H1623 cell growth in a cell viability assay.

COLO-741 = assay type: functional, cell-based
Description: SANGER: Inhibition of human COLO-741 cell growth in a cell viability assay.

Compound: C[C@]1(c2nc3c(C(N)=O)cccc3[nH]2)CCCN1 [VELIPARIB]
- IC50 (OE19): > 5 µM
- IC50 (G-402): > 5 µM
- IC50 (PC-14): > 5 µM
- IC50 (BEN): > 5 µM
- IC50 (NCI-H358): > 5 µM
- IC50 (RO82-W-1): > 5 µM
- IC50 (LN-405): > 5 µM
- IC50 (PA-1): > 5 µM
- IC50 (HLE): > 5 µM
- IC50 (U2OS): > 5 µM
- IC50 (UMUC3): > 5 µM
- IC50 (TCC-SUP): > 5 µM
- IC50 (HuP-T4): > 5 µM
- IC50 (SW1463): > 5 µM
- IC50 (KYSE-70 cell line): > 5 µM
- IC50 (BXPC-3): > 5 µM
- IC50 (NCI-H1651): > 5 µM
- IC50 (KYSE-140): > 5 µM
- IC50 (NCI-H1437): > 5 µM
- IC50 (MOLT-13): > 5 µM
- IC50 (KYSE-270): > 5 µM
- IC50 (SW948): > 5 µM
- IC50 (M059J): > 5 µM
- IC50 (NCI-H1693): > 5 µM
- IC50 (CAL-39): > 5 µM
- IC50 (HuO-3N1): > 5 µM
- IC50 (NCI-H2347): > 5 µM
- IC50 (J82): > 5 µM
- IC50 (LCLC-97TM1): > 5 µM
- IC50 (MeWo): > 5 µM
- IC50 (ABC-1): > 5 µM
- IC50 (COR-L23): > 5 µM
- IC50 (HCT-116): > 5 µM
- IC50 (Hs-578T): > 5 µM
- IC50 (SK-MEL-28): > 5 µM
- IC50 (IGR-1): > 5 µM
- IC50 (SK-N-AS): > 5 µM
- IC50 (NCI-H2452): > 5 µM
- IC50 (T84): > 5 µM
- IC50 (DMS-273): > 5 µM
- IC50 (SK-MEL-24): > 5 µM
- IC50 (EW-22): > 5 µM
- IC50 (DOK): > 5 µM
- IC50 (EGI-1): > 5 µM
- IC50 (CaR-1): > 5 µM
- IC50 (D-247MG): > 5 µM
- IC50 (CAKI-1): > 5 µM
- IC50 (NCI-H460): > 5 µM
- IC50 (SW1088): > 5 µM
- IC50 (MHH-ES-1): > 5 µM
- IC50 (SW1710): > 5 µM
- IC50 (NCI-H1623): > 5 µM
- IC50 (COLO-741): > 5 µM

Compound: COc1cc(Nc2c(C#N)cnc3cc(OCCCN4CCN(C)CC4)c(OC)cc23)c(Cl)cc1Cl [BOSUTINIB]
- IC50 (OE19): > 2 µM
- IC50 (G-402): > 2 µM
- IC50 (PC-14): 1.29 µM
- IC50 (BEN): > 2 µM
- IC50 (NCI-H358): > 2 µM
- IC50 (RO82-W-1): > 2 µM
- IC50 (LN-405): > 2 µM
- IC50 (PA-1): > 2 µM
- IC50 (HLE): > 2 µM
- IC50 (U2OS): > 2 µM
- IC50 (UMUC3): > 2 µM
- IC50 (TCC-SUP): > 2 µM
- IC50 (HuP-T4): > 2 µM
- IC50 (SW1463): > 2 µM
- IC50 (KYSE-70 cell line): > 2 µM
- IC50 (BXPC-3): > 2 µM
- IC50 (NCI-H1651): > 2 µM
- IC50 (KYSE-140): 1.76 µM
- IC50 (NCI-H1437): > 2 µM
- IC50 (MOLT-13): > 2 µM
- IC50 (KYSE-270): > 2 µM
- IC50 (SW948): > 2 µM
- IC50 (M059J): > 2 µM
- IC50 (NCI-H1693): 2 µM
- IC50 (CAL-39): > 2 µM
- IC50 (HuO-3N1): > 2 µM
- IC50 (NCI-H2347): > 2 µM
- IC50 (J82): > 2 µM
- IC50 (LCLC-97TM1): > 2 µM
- IC50 (MeWo): > 2 µM
- IC50 (ABC-1): > 2 µM
- IC50 (COR-L23): > 2 µM
- IC50 (HCT-116): > 2 µM
- IC50 (Hs-578T): > 2 µM
- IC50 (SK-MEL-28): > 2 µM
- IC50 (IGR-1): > 2 µM
- IC50 (SK-N-AS): > 2 µM
- IC50 (NCI-H2452): > 2 µM
- IC50 (T84): > 2 µM
- IC50 (DMS-273): > 2 µM
- IC50 (SK-MEL-24): > 2 µM
- IC50 (EW-22): > 2 µM
- IC50 (DOK): 0.378 µM
- IC50 (EGI-1): > 2 µM
- IC50 (CaR-1): > 2 µM
- IC50 (D-247MG): > 2 µM
- IC50 (CAKI-1): > 2 µM
- IC50 (NCI-H460): > 2 µM
- IC50 (SW1088): > 2 µM
- IC50 (MHH-ES-1): > 2 µM
- IC50 (SW1710): > 2 µM
- IC50 (NCI-H1623): > 2 µM
- IC50 (COLO-741): > 2 µM
